Experimental data: US20210052741A1, “GENE THERAPY METHODS AND COMPOSITIONS USING AUXOTROPHIC REGULATABLE CELLS” (AUXOLYTIC LTD, priority 2018, published 2021)
Values joined by “and” are separate entries in the source; they are usually repeats but may differ in a detail not shown here. Equal values may be shown once.

Legend:
UMPS locus = experiment: InDel quantification by ICE and ICE-D in activated T cells; format: cell-based, human; details: for ICE InDels (%) / ICE-D InDels (%): Cas9 RNP electroporated into activated T cells, 4 days
Description: sgRNAs were acquired with chemical modifications from Synthego Corporation. The sgRNAs were complexed with Cas9 protein (IDT) at a molar ration of 2.5:1 (sgRNA:protein) and electroporated into activated T cells using a 4D-NUCLEOFECTOR™ system (Lonza). 4 days later, cells were harvested, and genomic DNA extracted using QUICKEXTRACT™ DNA Extraction Kit (Epicentre) according to the manufacturer's protocol. The sgRNA target site was amplified with specific primers (Table 18) and the amplicon sequenced by Sanger sequencing (MCLab, South San Francisco).
InDel quantification was performed on the sequences using the interference of CRISPR edits (ICE) and ICE-D online tools (ice.synthego.com) (FIG. 5A).

[1] = cited from earlier work
UMPS^KO/KO K562 cells = experiment: K562 xenograft model, bioluminescence imaging; format: in vivo, NSG mice; details: subcutaneous xenograft, food with 8% UTA vs food without UTA
Description: (§1) For the K562 xenograft assay, 6 to 12 weeks old male NOD SCID gamma mouse (NSG) mice were transplanted with 1×10^6 K562 cells resuspended in […]® protein mixture (Corning, Inc.) 1:1 diluted with PBS under anesthesia. All animals were kept and handled according to institutional guidelines and the experimental protocol was approved by Stanford University's Administrative Panel on Laboratory Animal Care.
(§2) The previously engineered UMPS^KO/KO K562 cell line expressing firefly luciferase (FLuc) was used in a xenograft model in NSG mice. […] Cas9 RNP is targeted to exon 1 of the HBB locus with a guide RNA and a DNA donor template transduced by rAAV6 which carries a FLuc-2A-GFP-polyA cassette under control of the SFFV promoter. FACS analysis was performed four days after targeting of K562 cells to evaluate GFP expression before sorting of the GFP+ population. In a control group administered the AAV only, 1.61% of the cells were GFP+, and […].
(§3) UTA was acquired from Accela ChemBio Inc. and added to make the 8% (w/w) to Teklad mouse food (Envigo) and the food irradiated before use. […]
(§4) UMPS^KO/KO K562 cells or control cells were transplanted subcutaneously and observed weekly with bioluminescence imaging. Luminescence imaging of K562 cells was performed 5 minutes after intraperitoneal (ip) injection of 125 mg/kg D-Luciferin (PerkinElmer) on an IVIS Spectrum imaging system (PerkinElmer). […]

[2] = system: UMPS wild-type K562 cells; experiment: K562 xenograft model, bioluminescence imaging; format: in vivo, NSG mice; details: subcutaneous xenograft, normal or UTA supplemented food
Description: as §1, §2, §3, §4

[3] = system: UMPS^KO/KO engineered hES cells; experiment: Teratoma formation from engineered hES cells; format: in vivo, NSG mice
Protocol: To determine whether the safety switch can eradicate teratomas that originate from pluripotent cells, iPSCs or ES cells that were genetically modified (or control cells) were transplanted into mice. The cells expressed luciferase for in vivo detection. 1×10^6 UMPS-engineered hESCs were resuspended in a 100 μl of […]® protein mixture (Corning, Inc.) and PBS mixture and injected into the gastrocnemius muscle of the right hind leg of anesthetized NSG mice. The mice were followed up for tumor formation by tumor size measurement and by bioluminescence imaging. After establishment of tumors, whether withdrawal of Uridine triacetate (UTA) led to tumor regression was tested. At the endpoint (tumor sizes above 1.7 cm or impairment of mouse activity, otherwise 24 weeks) tumor was explanted and fixated for histological analysis.
Auxotrophic cell proliferation of the UMPS^KO/KO engineered hES cells in vivo was also analyzed. […] Bone marrow is analyzed at the time that the animal dies or is sacrificed (latest 16 weeks after injection). […] Groups were compared by statistical tests as indicated using Prism 7 (GraphPad).

UMPS knockout T cells [4] = experiment: Growth time course with/without UMP or uridine; format: cell-based, human
Protocol: (§5) Genomic DNA was harvested using QUICKEXTRACT™ DNA Extraction Kit (Epicentre). Cells were counted on an automated cell counter using Trypan blue staining or on a CytoFLEX flow cytometer (Beckman Coulter) with automatic plate reader using COUNTBRIGHT™ beads (ThermoFisher) as a reference for normalizing the values. Alternatively, cells were analyzed after staining with fluorochrome-labelled antibodies (Biolegend) on an ACCURI™ C6 flow cytometer (BD Biosciences), which also measures volumes, or a FACS ARIA™ II SORP cell sorter (BD Biosciences). Data was analyzed using Excel (Microsoft) and FlowJo software (Tree Star).
(§6) T Cells were electroporated and edited as in Example 2 and allowed to recover for a 4-day period in medium with serum, uridine, and UMP. On day 4, cells were shifted to UMP, uridine, or uracil source media.
(§7) To evaluate whether the UMPS knockout leads to differential cell proliferation if cultured without the addition of Uridine or Uridine monophosphate (UMP), the cell counts in culture were followed over time by automatic cell counting with Trypan blue staining. UMPS knockout led to lower cell counts from day 2 after electroporation, compared to cells that were mock electroporated or electroporated using Cas9 targeting a different genomic locus (i.e., CCR5) (FIG. 5B).

CCR5 knockout T cells = experiment: Growth time course with/without UMP or uridine; format: cell-based, human; details: metabolite 250 μg/ml
Protocol: as §5, §6, §7

Mock T cells [5] = experiment: Growth time course with/without UMP or uridine; format: cell-based, human; details: metabolite 250 μg/ml
Protocol: as §5, §6, §7

UMPS edited T cells = experiment: TIDE analysis of UMPS InDels in mixed UMPS edited population; format: cell-based, human
Protocol: Sanger sequencing of the UMPS locus was performed using UMPS-O-1 and UMPS-O-2, with the region amplified using PHUSION™ Hot Start Flex 2x Master Mix (New England Biolabs, Inc.). Sanger sequencing traces were analyzed by TIDE analysis (see, Brinkman et al, 2014, Nucleic Acids Res. 42(22):e168), which is hereby incorporated by reference in its entirety) to identify insertions and deletions (InDels) after editing. InDel quantification was performed on the sequences using the TIDE online tool (www.deskgen.com/landing/tide.html) (See, M. Sadelain, N. Engl. J. Med. 365, 1735-7 (2011), which is hereby incorporated by reference in its entirety.
T Cells were electroporated and edited as in Example 2 and allowed to recover for a 4-day period in medium with serum, uridine, and UMP. On day 4, cells were shifted to UMP, uridine, or uracil source media. […]
To confirm the results on the genomic level, genomic DNA was harvested at the end of the experiment and InDels were quantified (FIG. 5D-FIG. 5E). FIG. 5D compares the frequency of InDels in different culture conditions for cells not exposed to 5-FOA.

UMPS-7 targeted T cells = experiment: 5-FOA selection, cell counts after 4 days; format: cell-based, human
Protocol: (§8) 5-FOA selects for uracil auxotrophic cells in other organisms (e.g. Boeke et al. 1984, Mol. Gen. Genet. 197(2):345-6), which is hereby incorporated by reference in its entirety). To investigate the potential utility of 5-FOA for the selection of uracil auxotrophs among human cells, the UMPS gene was targeted in human T cells by Cas9-gRNA complex electroporation followed by recovery (as shown in Example 2) followed by an assay of resistance to 5-FOA treatment (FIG. 3A). Cells were grown in 5-FOA and a variety of combinations of serum and uracil sources for 4 days before cell counting was performed.

Mock T cells [6] = experiment: 5-FOA selection, cell counts after 4 days; format: cell-based, human
Protocol: as §8

UMPS knockout T cells [7] = experiment: Uracil auxotrophy growth assay after 5-FOA selection; format: cell-based, human; details: after 4 days 5-FOA selection, 4 days in supplemented media, without serum
Protocol: To assay whether or not the cells selected for by 5-FOA treatment were uracil auxotrophs, mock or UMPS targeted T cells were exposed to 5-FOA as shown in Example 4. Following 4 days of 5-FOA selection, the population of cells was split into an uracil containing media (UMP, uridine or both) and an uracil deficient media. A growth assay was subsequently performed by cell counting after following 4 days incubation in test media (Day 8) (FIG. 4A). In all cases, cell growth in the mock targeted cell cultures was negligible and independent of uracil source supplementation—indicating successful killing of non-UMPS targeted cells during the 5-FOA selection step (FIG. 4B-FIG. 4D).

[8] = UMPS knockout, metabolite 250 μg/ml
[9] = cells not exposed to 5-FOA, end of experiment, metabolite 250 μg/ml

UMPS-6: sgRNA for UMPS exon 1, target sequence + PAM GGCGGTCGCTCGTGCAGCTT TGG (SEQ ID NO: 6) (guide GGCGGTCGCTCGTGCAGCTTTGG; listed as DNA, chemistry not given here; the letters are possibly those of the target site; listed as Homo sapiens)
ICE InDels (%) (UMPS locus): 12%
ICE-D InDels (%) (UMPS locus): 11%

CC(=O)OC[C@H]1O[C@@H](n2ccc(=O)[nH]c2=O)[C@H](OC(C)=O)[C@@H]1OC(C)=O [UTA, uridine triacetate]
increase of uridine serum levels ([1]; humans and mouse models, administration of prodrug): greater than 10 fold
tolerability ([1]; mice, food enriched with 8% (w/w) UTA): well tolerated
luminescence of UMPS^KO/KO K562-derived tumors (UMPS^KO/KO K562 cells): only increased in the mice fed with 8% UTA
tumor burden of UMPS wild-type K562 cells [2]: increase in tumor burden
Teratoma weight, Weight [g] ([3]; NSG mice fed 8% (w/w) UTA food, 7 weeks after cell injection into hind leg, per mouse): 3.11 g and 0.033 g and 2.92 g and 1.54 g and 0.937 g
teratoma formation ([3]; mice fed with UTA, 7 weeks after cell injection): large teratomas

UMPS-3: sgRNA for UMPS exon 1, target sequence + PAM CCCCGCAGATCGATGTAGAT GGG (SEQ ID NO: 4) (guide CCCCGCAGATCGATGTAGATGGG; target sequence plus PAM, further chemistry not given here; listed as Homo sapiens)
ICE InDels (%) (UMPS locus): 45%
ICE-D InDels (%) (UMPS locus): 43%

O=c1ccn([C@@H]2O[C@H](COP(=O)(O)O)[C@@H](O)[C@H]2O)c(=O)[nH]1 [UMP, Uridine monophosphate]
Cell density, Day 1 (UMPS knockout T cells [4]; [8]): 8.74E+05 cells per ml
Cell density, Day 2 (UMPS knockout T cells [4]; [8]): 1.86E+06 cells per ml
Cell density, Day 4 (UMPS knockout T cells [4]; [8]): 3.47E+06 cells per ml
Cell density, Day 6 (UMPS knockout T cells [4]; [8]): 3.88E+06 cells per ml
Cell density, Day 8 (UMPS knockout T cells [4]; [8]): 3.63E+06 cells per ml
Number of viable cells per ml, Day 1 (UMPS knockout T cells [4]; [8]): 874000 cells per ml
Number of viable cells per ml, Day 2 (UMPS knockout T cells [4]; [8]): 1860000 cells per ml
Number of viable cells per ml, Day 4 (UMPS knockout T cells [4]; [8]): 3470000 cells per ml
Number of viable cells per ml, Day 6 (UMPS knockout T cells [4]; [8]): 3880000 cells per ml
Number of viable cells per ml, Day 8 (UMPS knockout T cells [4]; [8]): 3630000 cells per ml
growth of UMPS edited culture (UMPS knockout T cells [4]; exogenous uracil source 250 μg/ml): rescued the growth of an UMPS edited culture to the same level as mock edited cells
cell proliferation after UMPS knockout (UMPS knockout T cells [4]; supplemented at 250 μg/ml): not impaired
Cell density, Day 1 (CCR5 knockout T cells): 1.02E+06 cells per ml
Cell density, Day 2 (CCR5 knockout T cells): 1.80E+06 cells per ml
Cell density, Day 4 (CCR5 knockout T cells): 3.32E+06 cells per ml
Cell density, Day 6 (CCR5 knockout T cells): 3.80E+06 cells per ml
Cell density, Day 8 (CCR5 knockout T cells): 4.03E+06 cells per ml
Cell density, Day 1 (Mock T cells [5]): 9.83E+05 cells per ml
Cell density, Day 2 (Mock T cells [5]): 2.01E+06 cells per ml
Cell density, Day 4 (Mock T cells [5]): 3.80E+06 cells per ml
Cell density, Day 6 (Mock T cells [5]): 4.18E+06 cells per ml
Cell density, Day 8 (Mock T cells [5]): 3.90E+06 cells per ml
Alleles with frameshift InDels, Percent of alleles (without 5-FOA) (UMPS edited T cells; TIDE, day 8, metabolite 250 μg/ml): 46.1%
Alleles with InDels, Percent of alleles (without 5-FOA) (UMPS edited T cells; TIDE, metabolite 250 μg/ml): 71.1%
frameshift InDel frequency, Percent (UMPS edited T cells; [9]): 46.1%
overall InDel frequency, Percent (%) (UMPS edited T cells; [9]): 71.1%
Predicted viable cell counts, Cells with In-frame InDel (UMPS edited T cells; day 8, metabolite 250 μg/ml): 908000
Predicted viable cell counts, Cells with frameshift InDel (UMPS edited T cells; day 8, metabolite 250 μg/ml): 1670000
Predicted viable cell counts, Cells without InDel (UMPS edited T cells; day 8, metabolite 250 μg/ml): 1049070
survival in 5-FOA compared to control (UMPS-7 targeted T cells; UMPS targeted cells): improved the survival
Average of cells per volume unit (UMPS-7 targeted T cells; UMPS-7, 4 days in 5-FOA without serum, with substrate): 58299.26 cells per volume unit
Average of cells per volume unit (Mock T cells [6]; Mock, 4 days in 5-FOA without serum, with substrate): 24770.99 cells per volume unit
survival in 5-FOA compared to control (Mock T cells [6]; mock treated cells): improved the survival
Cells counts on Day 8 (UMPS knockout T cells [7]): 9978 and 6392

B1: UMPS-7: sgRNA for UMPS exon 1, target sequence + PAM … TGG (SEQ ID NO: 5); gRNA SEQ ID NO: 1 (nucleic acid)
guide: GCCCCGCAGAUCGAUGUAGAGUUUUAGAGCUAGAAAUAGCAAGUUAAAAUAAGGCUAGUCCGUUAUCAACUUGAAAAAGUGGCACCGAGUCGGUGCUUUU
modifications: listed as RNA, chemistry not given here
ICE InDels (%) (UMPS locus): 39%
ICE-D InDels (%) (UMPS locus): 93%
type of edits created (UMPS locus; detectable by ICE-D but not by ICE or TIDE): high proportion of large (greater than 30 bp) deletions
frequency of InDels in initial screening (UMPS locus; initial sgRNA screening): highest frequency of InDels
